Assay results: US20080107623A1, “Inhibitors of Hepatitis C Virus” (Bristol-Myers Squibb Company, priority 2006, published 2008)

Experiments:
[1] = target: T1, HCV NS3/4A protease complex, H77 strain (Hepatitis C virus genotype 1a, UniProt P27958, C1454S/C1711G); test: FRET peptide assay to monitor HCV NS3/4A proteolytic activity (H77 strain); type: biochemical, HCV genotype 1a; details: read-out: IC50 against NS3/4A H77 strain
T1 construct: recombinant HCV NS3/4A protease complex (amino acids 1027 to 1711) for these strains; made in house; host or cells: Escherichia coli BL21 (DE3), pET21b
Description: (§1) HCV NS3 protease complexes, derived from the BMS strain, H77 strain or J4L6S strain, were generated, as described below. These purified recombinant proteins were generated for use in a homogeneous assay (see below) to provide an indication of how effective compounds of the present disclosure would be in inhibiting HCV NS3 proteolytic activity.
(§2) The H77 and J4L6S strains were used for production of recombinant NS3/4A protease complexes. DNA encoding the recombinant HCV NS3/4A protease complex (amino acids 1027 to 1711) for these strains were manipulated as described by P. Gallinari et al. (see Gallinari P, Paolini C, Brennan D, Nardi C, Steinkuhler C, De Francesco R. Biochemistry. 38(17):5620-32, (1999)). Briefly, a three-lysine solubilizing tail was added at the 3′-end of the NS4A coding region. The cysteine in the P1 position of the NS4A-NS4B cleavage site (amino acid 1711) was changed to a glycine to avoid the proteolytic cleavage of the lysine tag. Furthermore, a cysteine to serine mutation was introduced by PCR at amino acid position 1454 to prevent the autolytic cleavage in the NS3 helicase domain. […]

[2] = test system: human pancreatic chymotrypsin; test: Specificity assay, chymotrypsin (pNA substrate); type: biochemical
Procedure: The specificities of compounds of the present disclosure were determined against a variety of serine proteases: human neutrophil elastase (HNE), porcine pancreatic elastase (PPE) and human pancreatic chymotrypsin and one cysteine protease: human liver cathepsin B. In all cases, a 96-well plate format protocol using colorimetric p-nitroaniline (pNA) substrate or fluorometric Amino-Methyl-Coumarin (AMC) substrate, specific for each enzyme was used as described previously (PCT Patent Application No. WO 00/09543) with some modifications. All enzymes were purchased from Sigma or EMDbiosciences while the substrates were from Bachem.
Each pNA assay included a 2 h enzyme-inhibitor pre-incubation at room temperature followed by addition of substrate and hydrolysis to ˜15% conversion as measured on a Spectramax Pro microplate reader. The cathepsin B assay was initiated by adding substrate to a 10 min enzyme-inhibitor pre-incubation at room temperature, and the assay plate measured immediately using the Cytofluor Series 4000. Compound concentrations varied from 100 to 0.4 μM depending on their potency.
50 mM Tris(hydroxymethyl)aminomethane hydrochloride (Tris-HCl) pH 8, 0.5 M Sodium Sulfate (Na2SO4), 50 mM NaCl, 0.1 mM EDTA, 3% DMSO, 0.01% Tween-20 with: […]
The percentage of inhibition was calculated using the formula: [1−((UVinh−UVblank)/(UVctl−UVblank))]×100 […]

[3] = target: T2, HCV NS3/4A protease complex, J4L6S strain (Hepatitis C virus genotype 1b, UniProt O92972, C1454S/C1711G); test: FRET peptide assay to monitor HCV NS3/4A proteolytic activity (J4L6S strain); type: biochemical, HCV genotype 1b; details: read-out: IC50 against NS3/4A J4L6S strain
T2 construct: recombinant HCV NS3/4A protease complex (amino acids 1027 to 1711) for these strains; made in house; host or cells: Escherichia coli BL21 (DE3), pET21b
Description: as §1, §2

T1 sequence (P27958 1027-1711 C1454S/C1711G, one chain of several): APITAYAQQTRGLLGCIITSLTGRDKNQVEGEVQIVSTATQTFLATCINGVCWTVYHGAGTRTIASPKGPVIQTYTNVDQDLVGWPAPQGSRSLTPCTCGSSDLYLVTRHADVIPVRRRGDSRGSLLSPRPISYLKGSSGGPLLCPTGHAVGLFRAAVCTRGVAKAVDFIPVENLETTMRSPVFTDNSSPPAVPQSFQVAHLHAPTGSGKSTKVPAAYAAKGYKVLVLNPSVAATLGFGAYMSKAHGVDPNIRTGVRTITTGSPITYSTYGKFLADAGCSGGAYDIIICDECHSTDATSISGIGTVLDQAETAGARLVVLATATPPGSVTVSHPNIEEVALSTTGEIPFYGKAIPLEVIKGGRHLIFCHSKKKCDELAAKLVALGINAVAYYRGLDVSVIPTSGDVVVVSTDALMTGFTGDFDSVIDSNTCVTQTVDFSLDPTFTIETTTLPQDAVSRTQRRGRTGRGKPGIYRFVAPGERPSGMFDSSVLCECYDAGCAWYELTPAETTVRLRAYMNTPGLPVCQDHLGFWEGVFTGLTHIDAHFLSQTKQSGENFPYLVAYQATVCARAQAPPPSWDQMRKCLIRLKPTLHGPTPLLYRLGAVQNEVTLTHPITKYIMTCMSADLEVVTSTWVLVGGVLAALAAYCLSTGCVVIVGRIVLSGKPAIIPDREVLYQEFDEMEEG
T2 sequence (O92972 1027-1711 C1454S/C1711G, one chain of several): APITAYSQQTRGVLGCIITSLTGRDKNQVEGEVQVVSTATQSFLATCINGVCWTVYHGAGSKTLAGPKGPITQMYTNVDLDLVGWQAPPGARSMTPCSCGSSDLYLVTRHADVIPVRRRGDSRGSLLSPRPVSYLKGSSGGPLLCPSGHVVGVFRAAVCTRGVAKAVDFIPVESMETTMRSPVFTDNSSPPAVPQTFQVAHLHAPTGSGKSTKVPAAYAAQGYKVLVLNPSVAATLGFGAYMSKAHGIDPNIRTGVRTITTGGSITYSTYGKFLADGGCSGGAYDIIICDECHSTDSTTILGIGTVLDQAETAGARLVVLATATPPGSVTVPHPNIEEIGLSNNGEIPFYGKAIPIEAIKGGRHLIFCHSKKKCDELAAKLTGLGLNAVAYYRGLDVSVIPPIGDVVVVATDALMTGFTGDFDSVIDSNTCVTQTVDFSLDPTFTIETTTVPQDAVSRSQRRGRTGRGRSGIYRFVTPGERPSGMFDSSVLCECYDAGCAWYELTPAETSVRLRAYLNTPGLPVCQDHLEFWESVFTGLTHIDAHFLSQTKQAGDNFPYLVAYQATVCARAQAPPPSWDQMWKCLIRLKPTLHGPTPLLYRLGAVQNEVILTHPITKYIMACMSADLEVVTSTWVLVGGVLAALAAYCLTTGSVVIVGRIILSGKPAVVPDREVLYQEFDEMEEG

COc1c(O[C@@H]2C[C@H]3C(=O)N[C@]4(C(=O)NS(=O)(=O)C5CC5)C[C@H]4/C=C\CCCCC[C@H](NC(=O)OC(C)(C)C)C(=O)N3C2)ccc2c(Cl)nccc12 [Compound 3]
IC50 [1]: 0.6 nM
IC50 [2]: > 100000 nM
IC50 [3]: 0.47 nM
